How the values were obtained:
[1] = test system: orthotopic glioblastoma; assay: Orthotopic glioblastoma mouse model; assay type: in vivo; settings: for proliferation rate: 100 μM or 300 μM of TP5; for tumor volume: 100 μM or 300 μM of TP5, FIG. 5
Description: The effect of TP5 administration in an orthotopic glioblastoma mouse model additionally was determined. 100 μM or 300 μM of TP5 was administered to the mice and tumor volume and proliferation rate were investigated.

[2] = test system: glioblastoma cell line U251; assay: Viability of glioblastoma cell line U251; assay type: cell-based; settings: FIG. 1
Description: (§1) The viability of glioblastoma cell line U251 following the administration of TP5 (SEQ ID NO: 1) was determined. TP5 scrambled (SEQ ID NO: 2) was used as a control.

[3] = test system: glioblastoma cell line U251; assay: DNA damage measured by expression of pH2Ax in U251; assay type: cell-based; settings: FIG. 4
From the text: Although not wishing to be bound by any particular theory, TP5 is believed to increase DNA damage in a dose-dependent manner and impair DNA repair by reducing G2 phase and decreasing the phosphorylation of ATM.

[4] = test system: colorectal carcinoma cell line HT29; assay: Viability of colorectal carcinoma cell line HT29; assay type: cell-based; settings: FIG. 6
Description: (§2) The viability of colorectal carcinoma cell line HT29 following the administration of TP5 (SEQ ID NO: 1) was determined. TP5 scrambled (SEQ ID NO: 2) was used as a control.

[5] = test system: glioblastoma cell line U251; assay: Early and late apoptosis in glioblastoma cell line U251; assay type: cell-based; settings: FIG. 3
Description: The extent of early and late apoptosis in glioblastoma cell line U251 also was determined.

[6] = test system: colorectal cancer colonies; assay: Number and viability of colorectal cancer colonies; assay type: cell-based; settings: different amounts of TP5; FIG. 7
Description: as §2

[7] = test system: glioblastoma colonies; assay: Number and viability of glioblastoma colonies; assay type: cell-based; settings: different amounts of TP5; FIG. 2
Description: as §1

[8] = test system: colorectal carcinoma cell line HT29; assay: DNA damage measured by expression of pH2Ax in HT29; assay type: cell-based; settings: FIG. 8
[9] = test system: subcutaneous colorectal cancer; assay: Subcutaneous colorectal cancer mouse model; assay type: in vivo; settings: FIG. 9
Description: The effect of TP5 administration alone or in combination with chemotherapy (Sn38; 7-ethyl-10-hydroxycamptothecin) in a subcutaneous colorectal cancer mouse model additionally was determined. TP5, Sn38, or TP5+Sn38 was administered to the mice and tumor volume and proliferation rate were investigated.

Substance | proliferation rate [1] | tumor volume [1] | viability of glioblastoma cell line [2] | DNA damage as measured by expression of pH2Ax [3] | viability of colorectal carcinoma cell line [4] | early and late apoptosis [5] | number and viability of colorectal cancer colonies [6] | number and viability of glioblastoma colonies [7] | DNA damage as measured by expression of pH2Ax [8] | tumor volume [9]
TP5 scrambled: scrambled TP5 peptide (SEQ ID NO: 2) used as a control (FWDRCLSGKMSSKGGGINAYARAARRAARR) [reference compound] | but not TP5 scrambled decreases the tumor volume and proliferation rate | but not TP5 scrambled decreases the tumor volume | but not TP5 scrambled decreased the viability of glioblastoma cell line | – | – | – | – | – | – | –
TP5: P5, a small peptide that selectively inhibits aberrant and hyperactive CDK5/p25, modified to facilitate passage through blood brain barrier; SEQ ID NO: 1 (KEAFWDRCLSVINLMSSKMLQINAYARAARRAARR) | decreases the tumor volume and proliferation rate | decreases the tumor volume | decreased the viability of glioblastoma cell line in a dose-dependent manner | increases DNA damage in glioblastoma cell line U251 in a dose-dependent manner | decreased the viability of glioblastoma cell line in a dose-dependent manner | increases the early and late apoptosis of glioblastoma cells | decreased the number and viability of colorectal cancer colonies in a dose-dependent manner | decreased the number and viability of glioblastoma colonies in a dose-dependent manner | increases DNA damage in colorectal carcinoma cell line HT29 in a dose-dependent manner | decreased the tumor volume of the mice

From patent US20220009980A1, “TP5, A PEPTIDE INHIBITOR OF ABERRANT AND HYPERACTIVE CDK5/P25 AS TREATMENT FOR CANCER” (The United States of America,as represented by the …, priority 2018, published 2022)
